From PubChem BioAssay AID1845201 (Molecular Pharmacology Branch, DTP, NCI, 2023)
pIC50: −log10 of the molar value.

Test system: COR L88 complex tumor spheroid viability
Test: Anticancer human tumor COR L88 cell line growth inhibition;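 note: compound exposure lasted 7 days before viability readout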;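 for viability, T/C: percent of DMSO vehicle-treated spheroids = 100%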
Conditions: for pIC50: curve of first compound; for viability, T/C: stronger effect = lower value
Excerpt: Multicellular complex tumor spheroid response to DNA repair inhibitors in combination with DNA-damaging drugs
This study explores the anticancer activities of DNA-damaging drugs and inhibitors of DNA damage repair, both as single agents and in combinations. Complex tumor spheroids comprised of malignant cells, endothelial cells and mesenchymal stem cells served as an in vitro model for human solid tumors. This model system incorporates physiologically relevant features and patient-derived or established malignant cell lines with clinically relevant genetic alterations from many tumor types. Twenty-six patient-derived or established malignant cell lines were evaluated representing sarcoma, melanoma, small cell lung cancer (SCLC), non-small cell lung cancer (NSCLC), as well as bladder, ovarian and pancreatic cancers. The concentration ranges selected for each drug and investigational agent were based upon clinically achievable concentrations if the clinical Cmax of the agent was known.
Compounds. The drugs and compounds olaparib (NSC753686), talazoparib (NSC767125), berzosertib (NSC777718), elimusertib (NSC800525), nedisertib (NSC802822), VX-984 (NSC792969), AZD-1390 (NSC803789), temozolomide (NSC362856), topotecan (NSC609699), trabectedin (NSC813783), staurosporine (NSC755774), and gemcitabine (NSC613327) were obtained from the National Cancer Institute (NCI) Developmental Therapeutics Program Chemical Repository. The FDA-approved anticancer drug set is available from the Developmental Therapeutics Program at https://dtp.cancer.gov/organization/dscb/obtaining/available_plates.htm. […] The stock solutions were prepared in dimethyl sulfoxide (DMSO, Sigma-Aldrich, St. Louis, MO, cat. D2650) at 400-fold the tested concentration and stored at -70 degrees C. Prior to their use, the stock solutions were diluted in fresh medium and the final DMSO concentration in the assay was 0.25% (v/v). All drugs and investigational agents were tested over a range starting from a high concentration at or near the clinical Cmax and decreasing in half-log increments. If the clinical Cmax for an agent had not been determined, the highest concentration tested was 10 microM.
Cell Lines. The patient-derived cancer cell (PDC) lines: 156681-154-R-J1-PDC, 283228-195-R-J1-PDC, 287954-098-R-J1-PDC, 292921-168-R-J2-PDC, 349418-098-R-PDC, 425362-245-T-J1-PDC, 556581-035-R-J1-PDC, and BL0293-F563-PDC were received from the NCI Patient-Derived Models Repository (PDMR, https://pdmr.cancer.gov). The established cell lines HS-SY-2 (RRID:CVCL_8719), MPNST, and SYO-1 (RRID:CVCL_7146) were obtained from the Sloan Kettering Institute. The alveolar soft parts sarcoma cell line ASPS-1 (RRID:CVCL_S738) was established at the NCI and grown from internal seed stocks. The following established cell lines were purchased from the American Type Culture Collection (ATCC, Manassas, VA): G-401 (ATCC, cat. CRL-1441, RRID:CVCL_0270), SW982 (ATCC, cat. HTB-93, RRID:CVCL_1734), VA-ES-BJ (ATCC, cat. CRL-2138, RRID:CVCL_1785), NCI-H719 (ATCC, cat. CRL-5837, RRID:CVCL_1582), NCI-H196 (ATCC, cat. CRL-5823, RRID:CVCL_1509), NCI-H841 (ATCC, cat. CRL-5845, RRID:CVCL_1595), NCI-H1618 (ATCC, cat. CRL-5879, RRID:CVCL_1480), NCI-H1876 (ATCC, cat. CRL-5902, RRID:CVCL_1503), DMS 114 (ATCC, cat. CRL-2066; RRID:CVCL_1174), NCI-H211 (ATCC, cat. CRL-5824; RRID:CVCL_1529), and SW 1271 (ATCC, cat. CRL-2177, RRID:CVCL_1716). The small cell lung cancer cell line COR-L88 was purchased from Sigma-Aldrich (cat. 92031917-1VL, RRID:CVCL_1141). The non-small cell lung cancer cell lines NCI-H226 (RRID:CVCL_1544) and NCI-H322M (RRID:CVCL_1557) were established at the NCI and grown from internal seed stocks. Pooled donor human umbilical vein endothelial cells (HUVEC, Lonza, cat. CC-2519) and human mesenchymal stem cells (hMSC, Lonza, cat. PT-2501) were purchased from Lonza (Walkersville, MD).
Cell Culture. All cells were maintained in an incubator at 37 degrees C and 5% CO2 with 95% humidity. […]

[1] = second compound 0.003 µM, first compound 0.00949 µM
[2] = second compound 0.003 µM, first compound 0.03 µM
[3] = second compound 0.003 µM, first compound 0.0949 µM
[4] = second compound 0.003 µM, first compound 0.3 µM
[5] = second compound 0.003 µM, first compound 0.949 µM
[6] = second compound 0.003 µM, first compound 3 µM
[7] = second compound 0.00949 µM, first compound 0.00949 µM
[8] = second compound 0.00949 µM, first compound 0.03 µM
[9] = second compound 0.00949 µM, first compound 0.0949 µM
[10] = second compound 0.00949 µM, first compound 0.3 µM
[11] = second compound 0.00949 µM, first compound 0.949 µM
[12] = second compound 0.00949 µM, first compound 3 µM
[13] = second compound 0.03 µM, first compound 0.00949 µM
[14] = second compound 0.03 µM, first compound 0.03 µM
[15] = second compound 0.03 µM, first compound 0.0949 µM
[16] = second compound 0.03 µM, first compound 0.3 µM
[17] = second compound 0.03 µM, first compound 0.949 µM
[18] = second compound 0.03 µM, first compound 3 µM
[19] = second compound 0.0949 µM, first compound 0.00949 µM
[20] = second compound 0.0949 µM, first compound 0.03 µM
[21] = second compound 0.0949 µM, first compound 0.0949 µM
[22] = second compound 0.0949 µM, first compound 0.3 µM
[23] = second compound 0.0949 µM, first compound 0.949 µM
[24] = second compound 0.0949 µM, first compound 3 µM
[25] = second compound 0.3 µM, first compound 0.00949 µM
[26] = second compound 0.3 µM, first compound 0.03 µM
[27] = second compound 0.3 µM, first compound 0.0949 µM
[28] = second compound 0.3 µM, first compound 0.3 µM
[29] = second compound 0.3 µM, first compound 0.949 µM
[30] = second compound 0.3 µM, first compound 3 µM

Row | SMILES | pIC50 (second compound 0.003 µM) | pIC50 (second compound 0.00949 µM) | pIC50 (second compound 0.03 µM) | pIC50 (second compound 0.0949 µM) | pIC50 (second compound 0.3 µM) | viability, T/C [3] | viability, T/C [4] | viability, T/C [5] | viability, T/C [6] | viability, T/C [9] | viability, T/C [10] | viability, T/C [11] | viability, T/C [12] | viability, T/C [15] | viability, T/C [16] | viability, T/C [17] | viability, T/C [18] | viability, T/C [21] | viability, T/C [22] | viability, T/C [23] | further results
1 | CNCc1ccc(-c2cc(-c3nc(-c4ccc(S(=O)(=O)C(C)C)cc4)cnc3N)on2)cc1 + CC[C@@]1(O)C(=O)OCc2c1cc1n(c2=O)Cc2cc3c(CN(C)C)c(O)ccc3nc2-1 | 6.30 | 6.41 | 6.83 | 7.65 | > 8.02 | 105% | 64.2% | 30.1% | 9.59% | 88.2% | 53.7% | 30% | 9.92% | 62.6% | 32.5% | 17.3% | 9.44% | 24.9% | 16.2% | 11.7% | viability, T/C [1]: 94.4%; viability, T/C [2]: 102%; viability, T/C [7]: 103%; viability, T/C [8]: 99.7%; viability, T/C [13]: 60.8%; viability, T/C [14]: 63.6%; viability, T/C [19]: 55.3%; viability, T/C [20]: 49.5%; viability, T/C [24]: 7.2%; viability, T/C [25]: 43%; viability, T/C [26]: 29.2%; viability, T/C [27]: 14.9%; viability, T/C [28]: 9.3%; viability, T/C [29]: 7.79%; viability, T/C [30]: 5.02%
2 | Cc1sc2c(c1C)C(c1ccc(Cl)cc1)=NC(CC(=O)Nc1ccc(O)cc1)c1nnc(C)n1-2 (stereo not given) + CC[C@@]1(O)C(=O)OCc2c1cc1n(c2=O)Cc2cc3c(CN(C)C)c(O)ccc3nc2-1 | 6.39 | 6.36 | 6.27 | 6.73 | 7.15 | 100% | 59.9% | 23.6% | 15.1% | 104% | 64.2% | 23.7% | 13.3% | 106% | 73% | 25.3% | 8.57% | 85.2% | 31.2% | 7.66% | viability, T/C [1]: 107%; viability, T/C [2]: 82.7%; viability, T/C [7]: 81.8%; viability, T/C [8]: 92.6%; viability, T/C [13]: 71.2%; viability, T/C [14]: 88.7%; viability, T/C [19]: 66.6%; viability, T/C [20]: 76.2%; viability, T/C [24]: 5.05%; viability, T/C [25]: 53.1%; viability, T/C [26]: 60.9%; viability, T/C [27]: 47.4%; viability, T/C [28]: 9.5%; viability, T/C [29]: 3.88%; viability, T/C [30]: 2.4%
3 | Cn1ncnc1[C@H]1c2n[nH]c(=O)c3cc(F)cc(c23)N[C@@H]1c1ccc(F)cc1 + CC[C@@]1(O)C(=O)OCc2c1cc1n(c2=O)Cc2cc3c(CN(C)C)c(O)ccc3nc2-1 | 7.04 | > 8.02 | > 8.02 | > 8.02 | > 8.02 | 47.4% | 42.4% | 41.1% | 38.3% | 44.1% | 43.1% | 40.2% | 40.6% | 43.2% | 41.5% | 38.1% | 36.5% | 37.3% | 34.9% | 31.6% | viability, T/C [1]: 65.9%; viability, T/C [2]: 61.9%; viability, T/C [7]: 49.7%; viability, T/C [8]: 44%; viability, T/C [13]: 48.2%; viability, T/C [14]: 49.5%; viability, T/C [19]: 41.2%; viability, T/C [20]: 38.4%; viability, T/C [24]: 24.5%; viability, T/C [25]: 36%; viability, T/C [26]: 32.6%; viability, T/C [27]: 32.4%; viability, T/C [28]: 26.9%; viability, T/C [29]: 24.6%; viability, T/C [30]: 17.4%
4 | O=C(c1cc(Cc2n[nH]c(=O)c3ccccc23)ccc1F)N1CCN(C(=O)C2CC2)CC1 + CC[C@@]1(O)C(=O)OCc2c1cc1n(c2=O)Cc2cc3c(CN(C)C)c(O)ccc3nc2-1 | 5.01 | 5.01 | 6.55 | > 7.02 | > 7.02 | 89% | 85.6% | 85.3% | 66% | 62.3% | 56.2% | 57.3% | 57.5% | 51.3% | 50.1% | 48.3% | 48% | 45.7% | 44% | 44.3% | viability, T/C (second compound 0.003 µM, first compound 9.49 µM): 51.3%; viability, T/C (second compound 0.003 µM, first compound 30 µM): 45.6%; viability, T/C (second compound 0.00949 µM, first compound 9.49 µM): 47.3%; viability, T/C (second compound 0.00949 µM, first compound 30 µM): 45.8%; viability, T/C (second compound 0.03 µM, first compound 9.49 µM): 45.9%; viability, T/C (second compound 0.03 µM, first compound 30 µM): 45.8%; viability, T/C [24]: 41.9%; viability, T/C (second compound 0.0949 µM, first compound 9.49 µM): 40.3%; viability, T/C (second compound 0.0949 µM, first compound 30 µM): 33%; viability, T/C [27]: 41.4%; viability, T/C [28]: 41%; viability, T/C [29]: 39%; viability, T/C [30]: 32.6%; viability, T/C (second compound 0.3 µM, first compound 9.49 µM): 24.4%; viability, T/C (second compound 0.3 µM, first compound 30 µM): 18.5%
